Experimental data published in ChEMBL document CHEMBL6120965, “Structure-Activity Relationship Studies Leading to the Discovery of Highly Water-Soluble and Biocompatible Acyclic Cucurbit[n]uril FY-3451 as a Universal Antagonist That Rapidly Reverses Neuromuscular Blocking Agents In Vivo” (J Med Chem, 2024).

Experiments:
Rocuronium = experiment: Binding affinity to Rocuronium by Competition UV-Vis titration method
Rattus norvegicus [1] = experiment: Recovery of Roc-induced neuromuscular block in Sprague-Dawley rat assessed as […] ratio (TOFr) >= 90% by measuring recovery time at 25 mg/kg, iv (reference value: 597 seconds); assay type: functional
Rattus norvegicus [2] = experiment: Recovery of CisA-induced neuromuscular block in Sprague-Dawley rat assessed as […] ratio (TOFr) >= 90% by measuring recovery time at 80 mg/kg, iv (reference value: 784 seconds); assay type: functional
[3] = Toxicity in iv dosed Sprague-Dawley rat assessed as maximum tolerated dose measured upto 14 days; assay type: organism-based; conditions: in vivo, 336 h, time < 14 day
[4] = Water solubility of the compound measured at 25 degreeC; assay type: physicochemical

Ka (Rocuronium) | solubility [4] | Structure (SMILES) | Time (Rattus norvegicus [1]) | Time (Rattus norvegicus [2]) | MTD [3]
1.05 10^7/M | – | O=C(O)CCSC[C@H]1O[C@@H]2O[C@H]3[C@H](O)[C@@H](O)[C@@H](O[C@H]4[C@H](O)[C@@H](O)[C@@H](O[C@H]5[C@H](O)[C@@H](O)[C@@H](O[C@H]6[C@H](O)[C@@H](O)[C@@H](O[C@H]7[C@H](O)[C@@H](O)[C@@H](O[C@H]8[C@H](O)[C@@H](O)[C@@H](O[C@H]9[C@H](O)C(O)[C@@H](O[C@H]1[C@H](O)[C@H]2O)O[C@@H]9CSCCC(=O)O)O[C@@H]8CSCCC(=O)O)O[C@@H]7CSCCC(=O)O)O[C@@H]6CSCCC(=O)O)O[C@@H]5CSCCC(=O)O)O[C@@H]4CSCCC(=O)O)O[C@@H]3CSCCC(=O)O (stereo partly specified) | – | – | –
– | – | C[C@]12N3Cc4c(c(OCCC(=O)[O-])c5ccccc5c4OCCC(=O)[O-])CN1C(=O)N1CN4C(=O)N5CN6C(=O)N7CN8C(=O)N9Cc%10c(c(OCCC(=O)[O-])c%11ccccc%11c%10OCCC(=O)[O-])CN%10C(=O)N(CN%11C(=O)N(CN%12C(=O)N(CN(C3=O)[C@]12C)[C@@H]4[C@H]%125)[C@@H]6[C@H]%117)[C@]8(C)[C@@]9%10C.[Na+].[Na+].[Na+].[Na+] | 95 s | – | –
– | 870 mg/mL | COc1cc(OCCCS(=O)(=O)[O-])c2c(c1OCCCS(=O)(=O)[O-])CN1C(=O)N3CN4C(=O)N5CN6C(=O)N7CN8C(=O)N9Cc%10c(c(OCCCS(=O)(=O)[O-])cc(OC)c%10OCCCS(=O)(=O)[O-])CN%10C(=O)N(CN%11C(=O)N(CN%12C(=O)N(CN%13C(=O)N(C2)C1(C)C%133C)C4C%125)C6C%117)C8(C)C%109C.[Na+].[Na+].[Na+].[Na+] (stereo unspecified) | 40 s | – | –
– | – | CN(C)C(=O)Oc1cccc([N+](C)(C)C)c1 [NEOSTIGMINE] | 409 s | 276 s | –
– | 600 mg/mL | Cc1cc(OCCCS(=O)(=O)[O-])c2c(c1OCCCS(=O)(=O)[O-])CN1C(=O)N3CN4C(=O)N5CN6C(=O)N7CN8C(=O)N9Cc%10c(c(OCCCS(=O)(=O)[O-])cc(C)c%10OCCCS(=O)(=O)[O-])CN%10C(=O)N(CN%11C(=O)N(CN%12C(=O)N(CN%13C(=O)N(C2)C1(C)C%133C)C4C%125)C6C%117)C8(C)C%109C.[Na+].[Na+].[Na+].[Na+] (mixture of isomers) | 151 s | – | –
– | 940 mg/mL | CC[C@]12N3Cc4c(c(OCCCS(=O)(=O)[O-])c(C)c(C)c4OCCCS(=O)(=O)[O-])CN1C(=O)N1CN4C(=O)N5CN6C(=O)N7CN8C(=O)N9Cc%10c(c(OCCCS(=O)(=O)[O-])c(C)c(C)c%10OCCCS(=O)(=O)[O-])CN%10C(=O)N(CN%11C(=O)N(CN%12C(=O)N(CN(C3=O)[C@]12CC)[C@@H]4[C@H]%125)[C@@H]6[C@H]%117)[C@]8(CC)[C@@]9%10CC.[Na+].[Na+].[Na+].[Na+] | 31 s | 130 s | –
– | – | C[C@]12N3Cc4c(c(OCC(=O)[O-])c5ccccc5c4OCC(=O)[O-])CN1C(=O)N1CN4C(=O)N5CN6C(=O)N7CN8C(=O)N9Cc%10c(c(OCC(=O)[O-])c%11ccccc%11c%10OCC(=O)[O-])CN%10C(=O)N(CN%11C(=O)N(CN%12C(=O)N(CN(C3=O)[C@]12C)[C@@H]4[C@H]%125)[C@@H]6[C@H]%117)[C@]8(C)[C@@]9%10C.[Na+].[Na+].[Na+].[Na+] | 108 s | – | –
– | – | C[C@]12N3Cc4c(c(OCC(C(=O)[O-])C(=O)[O-])c5ccccc5c4OCC(C(=O)[O-])C(=O)[O-])CN1C(=O)N1CN4C(=O)N5CN6C(=O)N7CN8C(=O)N9Cc%10c(c(OCC(C(=O)[O-])C(=O)[O-])c%11ccccc%11c%10OCC(C(=O)[O-])C(=O)[O-])CN%10C(=O)N(CN%11C(=O)N(CN%12C(=O)N(CN(C3=O)[C@]12C)[C@@H]4[C@H]%125)[C@@H]6[C@H]%117)[C@]8(C)[C@@]9%10C.[Na+].[Na+].[Na+].[Na+].[Na+].[Na+].[Na+].[Na+] | 84 s | – | –
– | 750 mg/mL | CC[C@]12N3Cc4c(OCCCS(=O)(=O)[O-])ccc(OCCCS(=O)(=O)[O-])c4CN1C(=O)N1CN4C(=O)N5CN6C(=O)N7CN8C(=O)N9Cc%10c(OCCCS(=O)(=O)[O-])ccc(OCCCS(=O)(=O)[O-])c%10CN%10C(=O)N(CN%11C(=O)N(CN%12C(=O)N(CN(C3=O)[C@]12CC)[C@@H]4[C@H]%125)[C@@H]6[C@H]%117)[C@]8(CC)[C@@]9%10CC.[Na+].[Na+].[Na+].[Na+] | 348 s | – | –
– | 520 mg/mL | O=C1N2Cc3c(OCCCS(=O)(=O)[O-])ccc(OCCCS(=O)(=O)[O-])c3CN3C(=O)N4CN5C(=O)N6CN7C(=O)N8CN9C(=O)N%10Cc%11c(OCCCS(=O)(=O)[O-])ccc(OCCCS(=O)(=O)[O-])c%11CN%11C(=O)N(CN%12C(=O)N(CN%13C(=O)N(CN1C41CCCCC231)[C@H]5[C@H]6%13)[C@H]7[C@H]8%12)C91CCCCC%10%111.[Na+].[Na+].[Na+].[Na+] (stereo partly specified) | 203 s | – | –

Structure (SMILES) | Ka (Rocuronium) | solubility [4] | Time (Rattus norvegicus [1]) | Time (Rattus norvegicus [2]) | MTD [3]
CC[C@]12N3Cc4c(c(OCCCS(=O)(=O)[O-])c5ccccc5c4OCCCS(=O)(=O)[O-])CN1C(=O)N1CN4C(=O)N5CN6C(=O)N7CN8C(=O)N9Cc%10c(c(OCCCS(=O)(=O)[O-])c%11ccccc%11c%10OCCCS(=O)(=O)[O-])CN%10C(=O)N(CN%11C(=O)N(CN%12C(=O)N(CN(C3=O)[C@]12CC)[C@@H]4[C@H]%125)[C@@H]6[C@H]%117)[C@]8(CC)[C@@]9%10CC.[Na+].[Na+].[Na+].[Na+] | – | 670 mg/mL | 19 s | 57 s | 500 mg/kg
